Experimental data taken from publication PMC5225183, “Fingerprinting of neurotoxic compounds using a mouse embryonic stem cell dual luminescence reporter assay” (Archives of Toxicology, 2016).
Marks after values point to notes of the source that are not given here.

Columns and labels:
[1] = system: ESCs and ESC-derived neurons; assay: Dual luminescence reporter test system, all readouts in ESCs and ESC-derived neurons
Excerpt: Fig. 1 Synopsis of experimental protocols. The impact of compounds on neural promoter activity (FLuc, Firefly Luciferase under the control of the Tα1 promoter), general promoter activity (RLuc, Renilla Luciferase under the control of the EF1α promoter), and amount of DNA (PI, propidium iodide fluorescence in cell homogenates) was investigated in undifferentiated mouse embryonic pluripotent stem cells (ESCs) and on ESC-derived neurons. Arrows indicate the time of measurement of the three parameters. a Protocol for testing compounds effects on ESCs. CGR8-2Luc cells were plated on gelatin-coated 96-well plates in maintenance medium (BHK21 medium containing 10 % FCS, L-glutamine, NEAA, P/S, and LIF). Twenty-four hours later, cells were exposed to compounds for forty-eight hours. b Protocol for testing compounds on ESC-derived neurons.
(§1) At day 5, cells were then re-plated (3 × 10^5 cells/cm^2) on polyornithine-coated 96-well plates in N2 medium containing DMEM, N2 supplement, penicillin/streptomycin, and 10 ng/ml basic human fibroblast growth factor (bFGF) (Invitrogen). […] To assess toxicity of compounds on undifferentiated pluripotent stem cells (ESCs), CGR8-2Luc cells were plated at 45,000 cells/cm^2 on 0.1 % gelatin-coated dishes in BHK21 medium, supplemented with 10 % fetal calf serum, L-glutamine, non-essential amino acids, penicillin/streptomycin, and leukemia inhibitory factor (LIF). After 24 h, compounds were added and incubated for 48 h, before luciferase expression and PI fluorescence were analyzed. In all experiments, methylmercury was used as a positive control at a concentration of 5 µM.
Luciferase activities were measured with a Dual-Luciferase™ Reporter system kit. CGR8-2Luc ES cells were lysed in 96-well plates according to the manufacturer’s instructions. Luminescence measurements were performed on a Fluostar Optima reader. Luminescence counts were expressed as percentage of promoter activity normalized by comparison with the control wells treated by DMSO. […] parameters were measured in homogenates of ESCs and in ESC-derived neurons: (1) FLuc, reflecting the activity of early neural promoter Tα1. FLuc increases during neuronal differentiation. Many neurotoxic compounds may affect FLuc expression, either through impact on neuronal differentiation, through changes of neuronal gene expression, or through killing of neurons.
(§2) PI was added to cell homogenates after the luciferase test, at a final concentration of 50 µg/ml and incubated for 2 h. After incubation, fluorescence intensity was measured on a Flexstation 3 microplate reader (Excitation: 544 nm ± 15 nm; Emission: 620 nm ± 15 nm). Results are expressed as percentage of control. Propidium iodide (PI) measures total DNA content as an approximation of the cell number. A decrease in PI fluorescence was interpreted as a decrease in cell number and therefore throughout the text referred to as cytotoxicity.
To describe the shape of different concentration–response curves, arbitrary scores were assigned as follows: 0 for “no change,” 1 for “down-stroke,” 2 for “bimodal profile,” and 3 for “up-stroke” (Fig. S1). A curve was classified as “down-stroke” or “up-stroke” if the change in response values comparative to control was statistically significant (p value <0.05, one-way ANOVA with post hoc Dunnett) with an additional requirement of a 30 % decrease or increase of mean response value relative to controls, respectively. If the absolute change in mean response values was below 30 % the curve was classified as “no change.” A curve was classified as “bimodal” if first up-stroke and subsequently down-stroke was observed.

[2] = printed in column Concentration in humans; ref http://pubchem.ncbi.nlm.nih.gov/compound/16682730; cited from earlier work
CGR8-2Luc ESCs = system: CGR8-2Luc ESCs
Excerpt: (§3) Fig. 1 Synopsis of experimental protocols. The impact of compounds on neural promoter activity (FLuc, Firefly Luciferase under the control of the Tα1 promoter), general promoter activity (RLuc, Renilla Luciferase under the control of the EF1α promoter), and amount of DNA (PI, propidium iodide fluorescence in cell homogenates) was investigated in undifferentiated mouse embryonic pluripotent stem cells (ESCs) and on ESC-derived neurons. Arrows indicate the time of measurement of the three parameters. a Protocol for testing compounds effects on ESCs. CGR8-2Luc cells were plated on gelatin-coated 96-well plates in maintenance medium (BHK21 medium containing 10 % FCS, L-glutamine, NEAA, P/S, and LIF). Twenty-four hours later, cells were exposed to compounds for forty-eight hours. b Protocol for testing compounds on ESC-derived neurons. CGR8-2Luc cells were co-cultured with MS5 cells to induce neural differentiation in DMEM medium containing 15 % KO-serum, NEAA, β-mercaptoethanol, and P/S. On day 5, cells were detached and seeded on polyornithine-coated plates in DMEM medium containing N2 supplement, bFGF, and P/S; compound exposure was from day 6 to day 8
as §1, with “To test compounds on ESC-derived neurons, neuronal differentiation was carried out as previously described (Suter et al. [2009]; Xu et al. [2014]). Briefly, CGR8-2Luc cells were seeded on irradiated bone marrow-derived stromal MS5 cells and cultivated for 4 days in DMEM medium containing 15 % Knock-out™ Serum Replacement, non-essential amino acids, beta-mercaptoethanol, and penicillin/streptomycin. At” for “At”
as §2, with “After measurement of luciferase activity, DNA quantity was determined by PI assay, as previously described (Xu et al. [2014]). PI was” for “PI was”
(§4) Lowest adverse effect level (LOAEL) was defined as the lowest tested concentrations that lead to a statistically significant decrease for a given read-out (FLuc, RLuc, and PI) compared to baseline. “Baseline” was not in all cases defined by untreated cells, but may also refer to, e.g., a state of increased activity due to low, non-toxic compound concentrations.

ESC-derived neurons = system: ESC-derived neurons
Excerpt: as §3
as §1, with “To test compounds on ESC-derived neurons, neuronal differentiation was carried out as previously described (Suter et al. [2009]; Xu et al. [2014]). Briefly, CGR8-2Luc cells were seeded on irradiated bone marrow-derived stromal MS5 cells and cultivated for 4 days in DMEM medium containing 15 % Knock-out™ Serum Replacement, non-essential amino acids, beta-mercaptoethanol, and penicillin/streptomycin. At” for “At”
as §2, with “After measurement of luciferase activity, DNA quantity was determined by PI assay, as previously described (Xu et al. [2014]). PI was” for “PI was”
as §4

[3] = system: Tubulin α1 (Tα1) promoter
Excerpt: (§5) Dual luciferase expressing CGR8-2Luc cells were obtained by transduction of mouse ESC CGR8 cells with the 2K7 EFS-Renilla Luciferase (RLuc)/Talpha1-Firefly Luciferase (FLuc) vector as previously described (Suter et al. [2006], [2009]); EFS corresponds to the short promoter of the eukaryotic translation elongation factor 1 alpha (EF1α), and Talpha1 to the Tubulin α1 (Tα1) promoter. Tα1 was selected as a promoter active in neurons, including early stages of neural differentiation. EF1α was originally selected to function as a constitutive promoter; however, it responds to cellular differentiation as well as to various chemicals, as previously shown (Kern et al. [2013]). Cells were cultured on 0.1 % gelatin-coated dishes in CGR8-2luc maintenance medium: BHK21 medium, supplemented with 10 % fetal calf serum, L-glutamine, non-essential amino acids, penicillin/streptomycin, and leukemia inhibitory factor (LIF). CGR8 cells were grown in a feeder-independent manner (embryonic pluripotent stem cells, ESCs) as described in protocol 1 (Fig. 1) before testing compounds of interest.
as §3
as §1, with “To test compounds on ESC-derived neurons, neuronal differentiation was carried out as previously described (Suter et al. [2009]; Xu et al. [2014]). Briefly, CGR8-2Luc cells were seeded on irradiated bone marrow-derived stromal MS5 cells and cultivated for 4 days in DMEM medium containing 15 % Knock-out™ Serum Replacement, non-essential amino acids, beta-mercaptoethanol, and penicillin/streptomycin. At” for “At”
(§6) Luciferase activities were measured with a Dual-Luciferase™ Reporter system kit. CGR8-2Luc ES cells were lysed in 96-well plates according to the manufacturer’s instructions. Luminescence measurements were performed on a Fluostar Optima reader. Luminescence counts were expressed as percentage of promoter activity normalized by comparison with the control wells treated by DMSO.

EF1α promoter = system: EF1α promoter
Excerpt: as §5, §3
as §1, with “To test compounds on ESC-derived neurons, neuronal differentiation was carried out as previously described (Suter et al. [2009]; Xu et al. [2014]). Briefly, CGR8-2Luc cells were seeded on irradiated bone marrow-derived stromal MS5 cells and cultivated for 4 days in DMEM medium containing 15 % Knock-out™ Serum Replacement, non-essential amino acids, beta-mercaptoethanol, and penicillin/streptomycin. At” for “At”
as §6

[4] = Table S1, three classes; ref per compound in the footnotes of Table S1; cited from earlier work
[5] = system: Tubulin α1 (Tα1) promoter; assay: cells
Excerpt: as §5, §3
as §1, with “To test compounds on ESC-derived neurons, neuronal differentiation was carried out as previously described (Suter et al. [2009]; Xu et al. [2014]). Briefly, CGR8-2Luc cells were seeded on irradiated bone marrow-derived stromal MS5 cells and cultivated for 4 days in DMEM medium containing 15 % Knock-out™ Serum Replacement, non-essential amino acids, beta-mercaptoethanol, and penicillin/streptomycin. At” for “At”
as §6

rats = details: rats, gestational days 6–17; ref Australian Therapeutic Goods Administration [2014]; cited from earlier work

SMILES: CC(=O)[O][Hg][c]1ccccc1 [Phenylmercuric acetate]
- Number of non-cytotoxic changes [1]: 0
- oral lethal dose [2]: 5–50 mg/kg (oral lethal dose)^i
- LOAEL ESC DNA (CGR8-2Luc ESCs): 0.5 µM
- LOAEL Neurons DNA (ESC-derived neurons): 0.5 µM
- LOAEL ESC Tα1 [3]: 0.5 µM
- LOAEL ESC EF1α (EF1α promoter): 0.5 µM
- LOAEL Neurons EF1α (EF1α promoter): 0.5 µM
- class based on clinical evidence for neurotoxicity [4]: Possibly (developmental)
- LOAEL Neurons Tα1 [5]: 0.5 µM

SMILES: CC(=O)O[C@H]1CC[C@@]2(C)C(=CC[C@@H]3[C@@H]2CC[C@]2(C)C(c4cccnc4)=CC[C@@H]32)C1 [abiraterone acetate]
- oral dose inducing developmental toxicity (rats): ≥ 10 mg/kg/day
